Read-outs that look alike come from different tables or passages of the source.
Experiments:
Type in all cases: biochemical
[1] = target: AKR1C3 (Homo sapiens (Human), UniProt P42330); assay: AKR enzyme inhibition assay, NADP+ dependent oxidation of S-tetralol, AKR1C3; conditions: for Selectivity 1C2:1C3: ratio of AKR1C2 to AKR1C3 IC50; for selectivity over AKR1C2: AKR1C3 over AKR1C2
Method: (§1) Structure-Activity Relationship: The ability of compounds to inhibit AKR1C3 in the first instance were determined by measuring the NADP+ dependent oxidation of S-tetralol catalyzed by recombinant enzyme as described herein. […] Assay of enzyme activity: The dehydrogenase activities of AKR1C1, AKR1C2, and AKR1C3 were determined by measuring the formation of NADH formation at 340 nm using Beckman DU640 spectrophotometer. […] After continuously monitoring for 5 min, the increase in UV absorption using different concentrations of enzyme were recorded to calculate the initial velocity and determine enzyme specific activity. IC50 value determination: The inhibitory potency for each compound was represented by IC50 value and measured as described before. […] The concentration of S-tetralol used in the assays for each AKR1C isoform was equal to the Km value for the respective enzyme so that IC50 values could be directly compared assuming a competitive pattern of inhibition. […] In this equation, “range” is the fitted uninhibited value minus the “background”, and “S” is a slope factor. “I” is the concentration of inhibitor. The equation assumes that y falls with increasing “I”.

[2] = target: AKR1C1 (Homo sapiens (Human), UniProt Q04828); assay: AKR enzyme inhibition assay, NADP+ dependent oxidation of S-tetralol, AKR1C1; conditions: Table 2; recombinant enzyme, S-tetralol at Km; read-out: IC50 ± SD AKR1C1
Method: (§2) Assay of enzyme activity: The dehydrogenase activities of AKR1C1, AKR1C2, and AKR1C3 were determined by measuring the formation of NADH formation at 340 nm using Beckman DU640 spectrophotometer. […] After continuously monitoring for 5 min, the increase in UV absorption using different concentrations of enzyme were recorded to calculate the initial velocity and determine enzyme specific activity. IC50 value determination: The inhibitory potency for each compound was represented by IC50 value and measured as described before. […] The concentration of S-tetralol used in the assays for each AKR1C isoform was equal to the Km value for the respective enzyme so that IC50 values could be directly compared assuming a competitive pattern of inhibition. […] In this equation, “range” is the fitted uninhibited value minus the “background”, and “S” is a slope factor. “I” is the concentration of inhibitor. The equation assumes that y falls with increasing “I”.

[3] = target: AKR1C2 (Homo sapiens (Human), UniProt P52895); assay: AKR enzyme inhibition assay, NADP+ dependent oxidation of S-tetralol, AKR1C2 counter-screen
Method: as §1

[4] = target: AKR1C4 (Homo sapiens (Human), UniProt P17516); assay: AKR enzyme inhibition assay, AKR1C4; conditions: Table 2; recombinant enzyme; read-out: IC50 ± SD AKR1C4
Method: as §2

[5] = Table 2, recombinant enzyme, S-tetralol at Km, read-out: IC50 ± SD AKR1C3
[6] = Table 2, recombinant enzyme, S-tetralol at Km, read-out: IC50 ± SD AKR1C2
[7] = Table 3, compounds of formula (A4), read-out: IC50 AKR1C3
[8] = Table 4, compounds of formula (A3), read-out: IC50 AKR1C3

Sequence of AKR1C3 (P42330 whole entry): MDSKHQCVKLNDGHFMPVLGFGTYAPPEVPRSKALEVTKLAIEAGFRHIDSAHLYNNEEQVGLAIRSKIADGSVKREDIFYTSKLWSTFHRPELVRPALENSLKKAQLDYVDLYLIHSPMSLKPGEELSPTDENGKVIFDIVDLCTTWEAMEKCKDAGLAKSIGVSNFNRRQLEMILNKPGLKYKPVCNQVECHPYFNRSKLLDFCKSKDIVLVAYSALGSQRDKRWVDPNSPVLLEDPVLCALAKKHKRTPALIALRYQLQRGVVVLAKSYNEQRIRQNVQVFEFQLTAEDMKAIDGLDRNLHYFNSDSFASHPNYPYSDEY
Sequence of AKR1C2 (P52895 whole entry): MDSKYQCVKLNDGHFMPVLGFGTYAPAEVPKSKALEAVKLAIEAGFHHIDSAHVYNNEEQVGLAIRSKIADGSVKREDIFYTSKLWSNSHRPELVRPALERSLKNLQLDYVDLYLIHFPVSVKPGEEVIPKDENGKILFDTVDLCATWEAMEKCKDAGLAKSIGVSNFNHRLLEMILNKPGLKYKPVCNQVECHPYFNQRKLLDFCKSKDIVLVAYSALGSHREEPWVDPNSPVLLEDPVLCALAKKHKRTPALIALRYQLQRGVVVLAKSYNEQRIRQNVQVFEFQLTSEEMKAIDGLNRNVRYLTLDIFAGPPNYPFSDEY
Sequence of AKR1C4 (P17516 whole entry): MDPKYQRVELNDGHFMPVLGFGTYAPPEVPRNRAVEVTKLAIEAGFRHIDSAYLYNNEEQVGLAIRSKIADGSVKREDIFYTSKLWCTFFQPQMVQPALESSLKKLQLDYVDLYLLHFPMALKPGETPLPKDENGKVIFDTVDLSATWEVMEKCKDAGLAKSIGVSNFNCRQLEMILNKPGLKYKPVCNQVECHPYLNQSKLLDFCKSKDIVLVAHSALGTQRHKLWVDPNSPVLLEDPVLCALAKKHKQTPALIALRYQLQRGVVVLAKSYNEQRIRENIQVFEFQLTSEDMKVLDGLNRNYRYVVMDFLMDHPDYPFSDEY
Sequence of AKR1C1 (Q04828 whole entry): as the sequence (P52895 whole entry) above, with V38T, H47R, V54L, S87C, M151V, H170R, L172Q counted along it

Row | SMILES | IC50 ([1]; read-out: IC50 AKR1C3) [µM] | IC50 [1, 5] [µM] | IC50 [3, 6] [µM] | IC50 [4] [µM] | other results
1 | COC(=O)/C=C/c1cc(Br)cc(C(=O)NCc2ccc(C)cc2)c1 [Compound 3] | 0.2 | – | – | – | –
2 | CC(C)=CCOc1cc(/C=C/C(=O)O)cc(C(=O)NCc2ccc(C)cc2)c1 [Compound 10, (E)-3-(3-((4-Methylbenzyl)carbamoyl)-5-((3-methylbut-2-en-1-yl)oxy)phenyl)acrylic acid] | – | 0.08 ± 0.01 | 15 ± 2.4 | 31 ± 5 | IC50 [2]: 52 ± 7 µM; Selectivity 1C2:1C3 ([1]; Table 2): 187
3 | Cc1ccc(CNC(=O)c2cc(Br)cc(/C=C/C(N)=O)c2)cc1 [Compound 12, (E)-3-(3-Amino-3-oxoprop-1-en-1-yl)-5-bromo-N-(4-methylbenzyl)benzamide] | – | – | – | – | IC50 [1, 7]: 28 ± 2.9 µM
4 | Cc1ccc(CNC(=O)c2cc(Br)cc(/C=C/C(=O)N(C)C)c2)cc1 [Compound 14, (E)-3-Bromo-5-(3-(dimethylamino)-3-oxoprop-1-en-1-yl)-N-(4-methylbenzyl)benzamide] | 0.4 | – | – | – | increased activity over terminal primary amide 12 ([1]; AKR1C3 inhibition): > 66 fold
5 | Cc1ccc(CNC(=O)c2cc(Br)cc(/C=C/C#N)c2)cc1 [Compound 15, (E)-3-Bromo-5-(2-cyanovinyl)-N-(4-methylbenzyl)benzamide] | 0.17 | – | – | – | –
6 | Cc1ccc(CNC(=O)c2cc(/C=C/C#N)cc(-c3ccc(Oc4ccccc4)cc3)c2)cc1 [Compound 16a, (E)-5-(2-Cyanovinyl)-N-(4-methylbenzyl)-4′-phenoxy-[1,1′-biphenyl]-3-carboxamide] | 1.4 | – | – | – | IC50 [1, 7]: 1.4 ± 0.3 µM
7 | CC(C)=CCc1cc(/C=C/C#N)cc(C(=O)NCc2ccc(C)cc2)c1 [Compound 16b, (E)-3-(2-Cyanovinyl)-N-(4-methylbenzyl)-5-(3-methylbut-2-en-1-yl)benzamide] | 2.7 | – | – | – | IC50 [1, 7]: 2.7 ± 0.37 µM
8 | CC[C@@H](NC(=O)c1cc(/C=C/C(=O)O)cc(-c2ccc(C(C)C)cc2)c1)c1ccccc1 [Compound 20a, (R,E)-3-(4′-Isopropyl-5-((1-phenylpropyl)carbamoyl)-[1,1′-biphenyl]-3-yl)acrylic acid] | – | – | – | – | IC50 [1, 8]: 0.12 ± 0.014 µM; Selectivity 1C2:1C3 ([1]; Table 4): 51; IC50 ([3]; Table 4, compounds of formula (A3), read-out: IC50 AKR1C2): 6 ± 1.4 µM
9 | CC[C@@H](NC(=O)c1cc(/C=C/C(=O)O)cc(-c2ccc(Oc3ccccc3)cc2)c1)c1ccccc1 [Compound 20b, (R,E)-3-(4′-Phenoxy-5-((1-phenylpropyl)carbamoyl)-[1,1′-biphenyl]-3-yl)acrylic acid] | – | – | – | – | IC50 [1, 8]: 0.26 ± 0.0166 µM
10 | C/C=C\Cc1cc(/C=C/C(=O)O)cc(C(=O)NCc2ccc(C)cc2)c1 [Compound A1-aa, (E)-3-(3-((Z)-but-2-en-1-yl)-5-((4-methylbenzyl)carbamoyl)phenyl)acrylic acid] | – | 0.08 ± 0.004 | 16 ± 2.5 | 25 ± 3.1 | IC50 [2]: 81 ± 5.1 µM; selectivity over AKR1C2 [1]: 200 fold
11 | Cc1ccc(CNC(=O)c2cc(/C=C/C(=O)O)cc(-c3ccc(Br)cc3)c2)cc1 [Compound A1-b, (E)-3-(4′-Bromo-5-((4-methylbenzyl)carbamoyl)-[1,1′-biphenyl]-3-yl)acrylic acid] | 0.09 | – | 25 ± 7 | 6.5 ± 0.6 | IC50 [2]: 107 ± 8 µM
12 | Cc1ccc(CNC(=O)c2cc(C#CC3CC3)cc(/C=C/C(=O)O)c2)cc1 [Compound A1-bb, (E)-3-(3-(Cyclopropylethynyl)-5-((4-methylbenzyl)carbamoyl)phenyl)acrylic acid] | – | 0.5 ± 0.04 | 37 ± 9.6 | – | selectivity over AKR1C2 [1]: 74 fold
13 | Cc1ccc(CNC(=O)c2cc(C#Cc3ccccc3)cc(/C=C/C(=O)O)c2)cc1 [Compound A1-w, (E)-3-(3-((4-methylbenzyl)carbamoyl)-5-(phenylethynyl)phenyl)acrylic acid] | – | 0.18 ± 0.019 | 11 ± 3.1 | – | selectivity over AKR1C2 [1]: 61 fold
14 | Cc1ccc(CNC(=O)c2cc(/C=C/C(=O)O)cc(CC(C)c3ccccc3)c2)cc1 (stereo not shown) [Compound A1-x, (E)-3-(3-((4-Methylbenzyl)carbamoyl)-5-(2-phenylpropyl)phenyl)acrylic acid] | 0.88 | – | 156 ± 71 | – | selectivity over AKR1C2 [1]: 177 fold
15 | Cc1ccc(CNC(=O)c2cc(/C=C/C(=O)O)cc(-c3ccc(CN4CCOCC4)c(F)c3)c2)cc1 [Compound A1-y, (E)-3-(3′-Fluoro-5-((4-methylbenzyl)carbamoyl)-4′-(morpholinomethyl)-[1,1′-biphenyl]-3-yl)acrylic acid] | 0.33 | – | 5.1 ± 0.6 | – | selectivity over AKR1C2 [1]: 16 fold

Further lines, with some results ahead:

Row | IC50 ([1]; read-out: IC50 AKR1C3) [µM] | IC50 [1, 5] [µM] | IC50 [3, 6] [µM] | IC50 [4] [µM] | SMILES | other results
16 | – | 0.3 ± 0.01 | > 100 | 40 ± 1.3 | Cc1ccc(CNC(=O)c2cc(Br)cc(/C=C/C(=O)O)c2)cc1 [Compound 11, (E)-3-(3-Bromo-5-((4-methylbenzyl)carbamoyl)phenyl)acrylic acid] | Selectivity 1C2:1C3 ([1]; Table 2): >333
17 | 2.7 | – | – | – | Cc1ccc(CNC(=O)c2cc(/C=C/C(N)=O)cc(-c3ccc(Oc4ccccc4)cc3)c2)cc1 [Compound 13, (E)-5-(3-Amino-3-oxoprop-1-en-1-yl)-N-(4-methylbenzyl)-4′-phenoxy-[1,1′-biphenyl]-3-carboxamide] | –
18 | 0.04 | – | > 100 | 21 ± 2.5 | Cc1ccc(CNC(=O)c2cc(/C=C/C(=O)O)cc(-c3ccccc3)c2)cc1 [Compound A1-a, (E)-3-(5-((4-Methylbenzyl)carbamoyl)-[1,1′-biphenyl]-3-yl)acrylic acid] | IC50 [2]: > 100 µM; selectivity over AKR1C2 [1]: > 2320 fold; Selectivity 1C2:1C3 ([1]; Table 2): >2500
19 | – | 0.06 ± 0.007 | 20 ± 9 | 6 ± 0.5 | Cc1ccc(CNC(=O)c2cc(/C=C/C(=O)O)cc(-c3ccc(Cl)cc3)c2)cc1 [Compound A1-c, (E)-3-(4′-Chloro-5-((4-methylbenzyl)carbamoyl)-[1,1′-biphenyl]-3-yl)acrylic acid] | IC50 [2]: > 100 µM; Selectivity 1C2:1C3 ([1]; Table 2): 333
20 | 0.06 | – | 36 ± 4 | 8 ± 1.2 | Cc1ccc(CNC(=O)c2cc(/C=C/C(=O)O)cc(-c3ccc(F)cc3)c2)cc1 [Compound A1-d, (E)-3-(4′-Fluoro-5-((4-methylbenzyl)carbamoyl)-[1,1′-biphenyl]-3-yl)acrylic acid] | IC50 [2]: > 100 µM; Selectivity 1C2:1C3 ([1]; Table 2): 600
21 | – | 0.07 ± 0.009 | > 100 | 15.4 ± 1.7 | Cc1ccc(CNC(=O)c2cc(/C=C/C(=O)O)cc(-c3ccccc3F)c2)cc1 [Compound A1-e, (E)-3-(2′-Fluoro-5-((4-methylbenzyl)carbamoyl)-[1,1′-biphenyl]-3-yl)acrylic acid] | IC50 [2]: > 100 µM; Selectivity 1C2:1C3 ([1]; Table 2): >1430
22 | – | 0.05 ± 0.004 | 48 ± 16 | 16.4 ± 2 | Cc1ccc(CNC(=O)c2cc(/C=C/C(=O)O)cc(-c3cccc(F)c3)c2)cc1 [Compound A1-f, (E)-3-(3′-Fluoro-5-((4-methylbenzyl)carbamoyl)-[1,1′-biphenyl]-3-yl)acrylic acid] | IC50 [2]: > 100 µM; selectivity over AKR1C2 [1]: 960 fold
23 | 0.13 | – | – | – | Cc1ccc(CNC(=O)c2cc(/C=C/C(=O)O)cc(-c3ccc(F)cc3F)c2)cc1 [Compound A1-g, (E)-3-(2′,4′-Difluoro-5-((4-methylbenzyl)carbamoyl)-[1,1′-biphenyl]-3-yl)acrylic acid] | –
24 | – | 0.2 ± 0.02 | – | – | Cc1ccc(CNC(=O)c2cc(/C=C/C(=O)O)cc(-c3ccc(C(F)(F)F)cc3)c2)cc1 [Compound A1-h, (E)-3-(5-((4-Methylbenzyl)carbamoyl)-4′-(trifluoromethyl)-[1,1′-biphenyl]-3-yl)acrylic acid] | –
25 | – | 0.1 ± 0.008 | 16 ± 3.9 | 10 ± 1.72 | Cc1ccc(CNC(=O)c2cc(/C=C/C(=O)O)cc(-c3ccc(C)cc3)c2)cc1 [Compound A1-i, (E)-3-(4′-Methyl-5-((4-methylbenzyl)carbamoyl)-[1,1′-biphenyl]-3-yl)acrylic acid] | IC50 [2]: 66 ± 17 µM; Selectivity 1C2:1C3 ([1]; Table 2): 160
26 | – | 0.19 ± 0.01 | – | – | CCc1ccc(-c2cc(/C=C/C(=O)O)cc(C(=O)NCc3ccc(C)cc3)c2)cc1 [Compound A1-j, (E)-3-(4′-Ethyl-5-((4-methylbenzyl)carbamoyl)-[1,1′-biphenyl]-3-yl)acrylic acid] | –
27 | 0.19 | – | – | – | Cc1ccc(CNC(=O)c2cc(/C=C/C(=O)O)cc(-c3ccc(C(C)C)cc3)c2)cc1 [Compound A1-k, (E)-3-(4′-Isopropyl-5-((4-methylbenzyl)carbamoyl)-[1,1′-biphenyl]-3-yl)acrylic acid] | –
28 | – | 0.17 ± 0.03 | – | – | COc1ccc(-c2cc(/C=C/C(=O)O)cc(C(=O)NCc3ccc(C)cc3)c2)cc1 [Compound A1-l, (E)-3-(4′-Methoxy-5-((4-methylbenzyl)carbamoyl)-[1,1′-biphenyl]-3-yl)acrylic acid] | –
29 | – | 0.17 ± 0.01 | – | – | Cc1ccc(CNC(=O)c2cc(/C=C/C(=O)O)cc(-c3ccc(C#N)cc3)c2)cc1 [Compound A1-m, (E)-3-(4′-Cyano-5-((4-methylbenzyl)carbamoyl)-[1,1′-biphenyl]-3-yl)acrylic acid] | –
30 | – | 0.094 ± 0.01 | 4.8 ± 1.2 | – | Cc1ccc(CNC(=O)c2cc(/C=C/C(=O)O)cc(-c3ccc(Oc4ccccc4)cc3)c2)cc1 [Compound A1-n, (E)-3-(5-((4-Methylbenzyl)carbamoyl)-4′-phenoxy-[1,1′-biphenyl]-3-yl)acrylic acid] | selectivity over AKR1C2 [1]: 51 fold
31 | – | 0.05 ± 0.004 | 29 ± 4.8 | 2.4 ± 0.15 | Cc1ccc(CNC(=O)c2cc(/C=C/C(=O)O)cc(-c3ccc(-c4ccccc4)cc3)c2)cc1 [Compound A1-u, (E)-3-(5-((4-Methylbenzyl)carbamoyl)-[1,1′:4′,1″-terphenyl]-3-yl)acrylic acid] | Selectivity 1C2:1C3 ([1]; Table 2): 580

Source: US20260035340A1, “INHIBITORS OF AKR1C3 AND METHODS OF USE” (BOARD OF REGENTS OF THE UNIVERSITY OF NEBRASKA, priority 2022, published 2026)
